Laboratory results reported in patent US12435046B2, “Alkynyl quinazoline compounds” (Black Diamond Therapeutics, Inc., priority 2019, dated 2025).

Key:
Assay type in all cases: cell-based
Details in all cases: Table A; BaF3 cells, 3 days
HER2 S310F = molecular target: T1, HER2 S310F (Homo sapiens, UniProt P04626, S310F); assay: BaF3 cell proliferation assay (CellTiterGlo), HER2 S310F
T1 construct: expressed in transfected cells; host or cells: BaF3 (murine pro-B) cells

EGFR V3 = molecular target: T2, EGFR V3 (Homo sapiens, UniProt P00533, DELINS30-297G); assay: BaF3 cell proliferation assay (CellTiterGlo), EGFR V3
T2 construct: expressed in transfected cells; host or cells: BaF3 (murine pro-B) cells, retroviral transduction with pMXs-IRES-Blasticidin
T2 sequence (P00533 with tags, fused parts or gaps DELINS30-297G): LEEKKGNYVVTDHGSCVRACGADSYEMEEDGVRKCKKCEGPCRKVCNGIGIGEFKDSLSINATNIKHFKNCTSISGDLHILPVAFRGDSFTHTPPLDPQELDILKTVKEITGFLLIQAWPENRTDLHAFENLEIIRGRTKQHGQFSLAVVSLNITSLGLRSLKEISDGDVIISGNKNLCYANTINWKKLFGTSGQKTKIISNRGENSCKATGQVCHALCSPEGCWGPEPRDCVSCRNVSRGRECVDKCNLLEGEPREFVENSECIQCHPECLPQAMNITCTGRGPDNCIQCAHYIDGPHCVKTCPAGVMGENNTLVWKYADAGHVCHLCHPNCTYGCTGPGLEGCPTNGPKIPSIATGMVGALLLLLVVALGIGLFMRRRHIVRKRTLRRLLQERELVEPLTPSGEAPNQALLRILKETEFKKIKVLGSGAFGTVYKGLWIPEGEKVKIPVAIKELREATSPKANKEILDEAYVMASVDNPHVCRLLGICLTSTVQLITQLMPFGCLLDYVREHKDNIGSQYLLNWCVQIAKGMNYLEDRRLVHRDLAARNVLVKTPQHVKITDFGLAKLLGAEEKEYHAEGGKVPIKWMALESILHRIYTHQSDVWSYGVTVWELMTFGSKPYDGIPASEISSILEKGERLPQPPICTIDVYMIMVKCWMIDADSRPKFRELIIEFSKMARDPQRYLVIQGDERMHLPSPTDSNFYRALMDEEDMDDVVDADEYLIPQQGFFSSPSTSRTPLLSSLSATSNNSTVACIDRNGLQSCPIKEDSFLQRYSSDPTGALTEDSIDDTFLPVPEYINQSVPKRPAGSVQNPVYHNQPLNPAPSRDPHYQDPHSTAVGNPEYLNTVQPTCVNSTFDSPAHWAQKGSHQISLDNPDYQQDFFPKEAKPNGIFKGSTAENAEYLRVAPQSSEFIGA
Procedure, shortened: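 BaF3 cells made IL-3-independent by retroviral expression of each EGFR or HER2 mutant were treated in triplicate with compound for 72 h. Viability was read by CellTiterGlo ATP luminescence and normalised to vehicle, and EC50 was fitted from dose-response curves.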

HER2 YVMA = molecular target: T3, HER2 YVMA (Homo sapiens, UniProt P04626, INS775YVMA); assay: BaF3 cell proliferation assay (CellTiterGlo), HER2 YVMA
T3 construct: expressed in transfected cells; host or cells: BaF3 (murine pro-B) cells
T3 sequence (P04626 with tags, fused parts or gaps INS775YVMA): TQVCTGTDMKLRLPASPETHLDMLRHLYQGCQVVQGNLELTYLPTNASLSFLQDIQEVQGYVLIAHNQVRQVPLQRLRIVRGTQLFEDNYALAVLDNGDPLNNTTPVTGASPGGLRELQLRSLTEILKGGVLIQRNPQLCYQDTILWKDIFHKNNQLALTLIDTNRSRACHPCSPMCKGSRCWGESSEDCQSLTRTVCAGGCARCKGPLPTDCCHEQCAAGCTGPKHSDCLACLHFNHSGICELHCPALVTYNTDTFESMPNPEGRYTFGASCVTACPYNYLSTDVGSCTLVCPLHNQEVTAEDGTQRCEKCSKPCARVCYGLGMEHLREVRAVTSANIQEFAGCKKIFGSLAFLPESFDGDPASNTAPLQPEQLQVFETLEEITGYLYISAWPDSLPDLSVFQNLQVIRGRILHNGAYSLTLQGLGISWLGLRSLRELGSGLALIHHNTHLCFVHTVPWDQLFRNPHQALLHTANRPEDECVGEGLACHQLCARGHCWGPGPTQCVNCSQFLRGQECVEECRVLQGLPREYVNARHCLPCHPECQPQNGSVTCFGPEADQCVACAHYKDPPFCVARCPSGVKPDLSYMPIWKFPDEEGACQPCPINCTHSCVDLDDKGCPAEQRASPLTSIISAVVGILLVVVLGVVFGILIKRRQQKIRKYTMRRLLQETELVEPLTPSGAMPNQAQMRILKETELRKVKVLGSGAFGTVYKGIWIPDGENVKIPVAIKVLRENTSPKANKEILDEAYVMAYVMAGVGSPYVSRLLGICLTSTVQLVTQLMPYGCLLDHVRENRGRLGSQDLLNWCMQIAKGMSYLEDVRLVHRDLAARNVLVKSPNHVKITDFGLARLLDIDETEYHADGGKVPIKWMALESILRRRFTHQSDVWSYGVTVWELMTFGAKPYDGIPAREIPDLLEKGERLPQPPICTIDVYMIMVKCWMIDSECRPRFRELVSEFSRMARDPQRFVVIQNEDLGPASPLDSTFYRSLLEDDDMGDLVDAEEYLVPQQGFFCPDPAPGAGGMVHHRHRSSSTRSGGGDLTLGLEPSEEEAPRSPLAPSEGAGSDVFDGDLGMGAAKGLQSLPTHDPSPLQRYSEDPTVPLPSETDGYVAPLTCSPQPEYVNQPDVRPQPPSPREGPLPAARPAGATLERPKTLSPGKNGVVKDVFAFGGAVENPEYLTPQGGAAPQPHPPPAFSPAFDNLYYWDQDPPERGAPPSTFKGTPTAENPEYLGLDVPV

EGFR NPH = molecular target: T4, EGFR NPH (Homo sapiens, UniProt P00533, INS773NPH); assay: BaF3 cell proliferation assay (CellTiterGlo), EGFR NPH
T4 construct: expressed in transfected cells; host or cells: BaF3 (murine pro-B) cells, retroviral transduction with pMXs-IRES-Blasticidin
Description: (§1) Retroviral Production: EGFR mutants were subcloned into pMXs-IRES-Blasticidin (RTV-016, Cell Biolabs, San Diego, CA). Retroviral expression vector retrovirus was produced by transient transfection of HEK 293T cells with the retroviral EGFR mutant expression vector pMXs-IRES-Blasticidin (RTV-016, Cell Biolabs), pCMV-Gag-Pol vector and pCMV-VSV-G-Envelope vector. Briefly, HEK 293T/17 cells were plated in 100 mm collagen coated plate (354450, Corning Life Sciences, Tewksbury, MA) (4×10^5 per plate) and incubated overnight. The next day, retroviral plasmids (3 ng of EGFR mutant, 1.0 ng of pCMV-Gag-Pol and 0.5 ng pCMV-VSV-G) were mixed in 500 n1 of Optimem (31985, Life Technologies). The mixture was incubated at room temperature for 5 min and then added to Optimem containing transfection reagent Lipofectamine (11668, Invitrogen) and incubated for 20 minutes. Mixture was then added dropwise to HEK 293T cells. The next day the medium was replaced with fresh culture medium and retrovirus was harvested @ 24 and 48 hrs.
(§2) Generation of EGFR mutant stable cell lines: BaF3 cells (1.5E5 cells) were infected with 1 ml of viral supernatant supplemented with 8 ng/ml polybrene by centrifuging for 30 min at 1000 rpm. Cells were placed in a 37° C. incubator overnight. Cells were then spun for 5 minutes to pellet the cells. Supernatant was removed and cells re-infected a fresh 1 ml of viral supernatant supplemented with 8 ng/ml polybrene by centrifuging for 30 min at 1000 rpm. Cells were placed in 37° C. incubator overnight. Cells were then maintained in RPMI containing 10% Heat Inactivated FBS, 2% L-glutamine containing 10 ng/ml IL-3. After 48 hours cells were selected for retroviral infection in 10 […] for one week. Blasticidin resistant populations were washed twice in phosphate buffered saline before plating in media lacking IL-3 to select for IL-3 independent growth.
(§3) Assay for cell proliferation: BaF3 cell lines were resuspended at 1.3E5 c/ml in RPMI containing 10% Heat Inactivated FBS, 2% L-glutamine and 1% Pen/Strep and dispensed in triplicate (17.5E4 c/well) into 96 well plates. To determine the effect of drug on cell proliferation, cells incubated for 3 days in the presence of vehicle control or test drug at varying concentrations. Inhibition of cell growth was determined by luminescent quantification of intracellular ATP content using CellTiterGlo (Promega), according to the protocol provided by the manufacturer. Comparison of cell number on day 0 versus 72 hours post drug treatment was used to plot dose-response curves. The number of viable cells was determined and normalized to vehicle-treated controls. Inhibition of proliferation, relative to vehicle-treated controls was expressed as a fraction of 1 and graphed using PRISM® software (Graphpad Software, San Diego, CA). EC50 values were determined with the same application.

EGFR SVD = molecular target: T5, EGFR SVD (Homo sapiens, UniProt P00533, INS770SVD); assay: BaF3 cell proliferation assay (CellTiterGlo), EGFR SVD
T5 construct: expressed in transfected cells; host or cells: BaF3 (murine pro-B) cells, retroviral transduction with pMXs-IRES-Blasticidin
Description: as §1, §2, §3

EGFR wt = molecular target: T6, EGFR wt (Homo sapiens, UniProt P00533); assay: BaF3 cell proliferation assay (CellTiterGlo), EGFR wt
T6 construct: expressed in transfected cells; host or cells: BaF3 (murine pro-B) cells, retroviral transduction with pMXs-IRES-Blasticidin
T6 sequence (P00533 25-1210): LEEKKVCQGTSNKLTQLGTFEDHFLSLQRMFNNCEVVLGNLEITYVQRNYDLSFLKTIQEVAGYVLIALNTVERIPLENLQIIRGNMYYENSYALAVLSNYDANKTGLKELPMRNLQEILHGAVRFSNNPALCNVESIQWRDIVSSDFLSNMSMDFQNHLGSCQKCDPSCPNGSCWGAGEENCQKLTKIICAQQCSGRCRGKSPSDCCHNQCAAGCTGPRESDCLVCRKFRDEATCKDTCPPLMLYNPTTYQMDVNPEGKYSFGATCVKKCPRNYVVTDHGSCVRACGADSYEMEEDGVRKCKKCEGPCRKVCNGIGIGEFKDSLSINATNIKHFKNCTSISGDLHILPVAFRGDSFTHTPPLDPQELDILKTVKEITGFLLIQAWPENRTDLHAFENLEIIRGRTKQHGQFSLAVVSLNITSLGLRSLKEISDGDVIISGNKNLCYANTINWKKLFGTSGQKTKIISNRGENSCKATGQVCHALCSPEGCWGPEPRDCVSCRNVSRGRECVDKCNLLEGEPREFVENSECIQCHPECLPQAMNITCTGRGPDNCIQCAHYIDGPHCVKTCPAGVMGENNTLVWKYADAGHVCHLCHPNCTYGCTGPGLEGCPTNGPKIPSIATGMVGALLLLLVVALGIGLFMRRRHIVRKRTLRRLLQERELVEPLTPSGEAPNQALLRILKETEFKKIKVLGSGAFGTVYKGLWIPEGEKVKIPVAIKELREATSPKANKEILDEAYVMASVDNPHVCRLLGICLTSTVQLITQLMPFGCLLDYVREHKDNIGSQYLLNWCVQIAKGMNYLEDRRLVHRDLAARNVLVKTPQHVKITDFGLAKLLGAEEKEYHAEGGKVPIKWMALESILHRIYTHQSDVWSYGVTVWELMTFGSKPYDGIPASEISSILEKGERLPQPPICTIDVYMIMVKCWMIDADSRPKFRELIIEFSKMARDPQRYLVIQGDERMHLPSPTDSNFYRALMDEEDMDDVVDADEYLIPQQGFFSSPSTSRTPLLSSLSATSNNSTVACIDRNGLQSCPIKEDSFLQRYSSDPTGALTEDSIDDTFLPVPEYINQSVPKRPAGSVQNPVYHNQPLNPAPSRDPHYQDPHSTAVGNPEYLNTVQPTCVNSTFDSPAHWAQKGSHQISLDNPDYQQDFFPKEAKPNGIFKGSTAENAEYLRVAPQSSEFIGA
Procedure, shortened: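 BaF3 cells engineered by retroviral transduction to express EGFR and selected for blasticidin resistance and IL-3 independent growth were suspended at 1.3E5 c/ml in RPMI with 10% heat inactivated FBS, 2% L-glutamine and 1% Pen/Strep. They were plated in triplicate in 96 well plates and exposed to vehicle or varying drug concentrations for 3 days. Viability was quantified by CellTiterGlo ATP luminescence, normalized to vehicle, and curves fitted in PRISM.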

T1 sequence (P04626 23-1255 S310F): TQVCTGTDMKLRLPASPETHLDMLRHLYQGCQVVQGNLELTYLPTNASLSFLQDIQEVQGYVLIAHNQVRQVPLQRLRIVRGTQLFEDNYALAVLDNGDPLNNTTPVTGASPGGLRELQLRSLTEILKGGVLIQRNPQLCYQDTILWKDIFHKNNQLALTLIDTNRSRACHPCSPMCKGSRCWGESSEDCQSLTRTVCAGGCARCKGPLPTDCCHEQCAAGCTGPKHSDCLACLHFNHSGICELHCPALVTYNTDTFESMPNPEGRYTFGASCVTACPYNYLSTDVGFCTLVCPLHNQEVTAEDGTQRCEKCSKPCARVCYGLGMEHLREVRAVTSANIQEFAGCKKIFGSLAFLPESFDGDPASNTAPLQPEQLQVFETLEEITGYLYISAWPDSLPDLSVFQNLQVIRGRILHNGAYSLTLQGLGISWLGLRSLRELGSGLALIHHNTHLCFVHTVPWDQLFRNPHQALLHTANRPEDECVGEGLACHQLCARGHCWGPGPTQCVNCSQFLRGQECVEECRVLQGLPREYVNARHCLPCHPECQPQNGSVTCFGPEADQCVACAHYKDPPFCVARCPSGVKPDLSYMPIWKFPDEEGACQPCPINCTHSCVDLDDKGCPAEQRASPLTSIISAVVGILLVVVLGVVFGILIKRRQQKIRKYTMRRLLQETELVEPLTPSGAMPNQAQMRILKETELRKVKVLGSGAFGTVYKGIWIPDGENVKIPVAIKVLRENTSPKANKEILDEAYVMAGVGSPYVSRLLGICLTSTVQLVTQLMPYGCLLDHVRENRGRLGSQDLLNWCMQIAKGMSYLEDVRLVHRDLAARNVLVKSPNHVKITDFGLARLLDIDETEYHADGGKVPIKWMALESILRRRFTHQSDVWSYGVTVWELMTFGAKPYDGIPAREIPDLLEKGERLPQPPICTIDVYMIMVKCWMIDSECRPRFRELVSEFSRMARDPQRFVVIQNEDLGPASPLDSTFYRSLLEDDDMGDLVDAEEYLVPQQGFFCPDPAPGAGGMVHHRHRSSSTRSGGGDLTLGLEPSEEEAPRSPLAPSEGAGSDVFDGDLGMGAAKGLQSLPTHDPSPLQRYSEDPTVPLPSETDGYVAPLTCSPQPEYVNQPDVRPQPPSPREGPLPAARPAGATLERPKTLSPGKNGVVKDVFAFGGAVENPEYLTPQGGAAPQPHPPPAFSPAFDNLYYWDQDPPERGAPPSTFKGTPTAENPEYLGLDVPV

| SMILES | IC50 (HER2 S310F) [µM] | IC50 (EGFR V3) [µM] | IC50 (HER2 YVMA) [µM] | IC50 (EGFR NPH) [µM] | IC50 (EGFR SVD) [µM] | IC50 (EGFR wt) [µM] |
| --- | --- | --- | --- | --- | --- | --- |
| C=CC(=O)Nc1cc2c(Nc3cccc(Cl)c3F)ncnc2cc1C#CC1(C)CCN(C)C1 (centres unmarked) [Compound 1, N-(4-((3-chloro-2-fluorophenyl)amino)-7-((1,3-dimethylpyrrolidin-3-yl)ethynyl)quinazolin-6-yl)acrylamide] | 0.05 to 0.1 | ≤ 0.05 | 0.1 to 0.5 | 0.05 to 0.1 | 0.1 to 0.5 | 0.05 to 0.1 |
| C=CC(=O)Nc1cc2c(Nc3ccc(Oc4ccccc4)cc3)ncnc2cc1C#C[C@]12C[C@H]1CN(C)C2 [Compound 41, N-(7-(((1S,5R)-3-methyl-3-azabicyclo[3.1.0]hexan-1-yl)ethynyl)-4-((4-phenoxyphenyl)amino)quinazolin-6-yl)acrylamide] | – | ≤ 0.05 | ≤ 0.05 | 0.1 to 0.5 | 0.1 to 0.5 | 0.1 to 0.5 |
| C=CC(=O)Nc1cc2c(Nc3ccc(OCc4ccccn4)c(Cl)c3)ncnc2cc1C#C[C@H]1[C@H]2CN(C)C[C@@H]12 [Compound 79, N-(4-((3-chloro-4-(pyridin-2-ylmethoxy)phenyl)amino)-7-(((1R,5S,6r)-3-methyl-3-azabicyclo[3.1.0]hexan-6-yl)ethynyl)quinazolin-6-yl)acrylamide] | > 0.5 | > 0.5 | > 0.5 | – | – | > 0.5 |
| C=CC(=O)Nc1cc2c(Nc3cccc(Cl)c3F)ncnc2cc1C#CC1(F)CCN(C)C1 (centres unmarked) [Compound 60, N-(4-((3-chloro-2-fluorophenyl)amino)-7-((3-fluoro-1-methylpyrrolidin-3-yl)ethynyl)quinazolin-6-yl)acrylamide] | 0.05 to 0.1 | ≤ 0.05 | 0.1 to 0.5 | – | – | 0.1 to 0.5 |
| CC#CC(=O)Nc1cc2c(Nc3ccc(OCc4ccccn4)c(Cl)c3)ncnc2cc1C#CC1(C)CCN(C)C1 (centres unmarked) [Compound 70, N-(4-((3-chloro-4-(pyridin-2-ylmethoxy)phenyl)amino)-7-((1,3-dimethylpyrrolidin-3-yl)ethynyl)quinazolin-6-yl)but-2-ynamide] | ≤ 0.05 | ≤ 0.05 | ≤ 0.05 | – | – | 0.05 to 0.1 |
| C=CC(=O)Nc1cc2c(Nc3ccc(OCc4ccccn4)c(Cl)c3)ncnc2cc1C#CC12CCC(CC1)N2C [Compound 71, N-(4-((3-chloro-4-(pyridin-2-ylmethoxy)phenyl)amino)-7-((7-methyl-7-azabicyclo[2.2.1]heptan-1-yl)ethynyl)quinazolin-6-yl)acrylamide] | ≤ 0.05 | ≤ 0.05 | 0.1 to 0.5 | – | – | > 0.5 |
| C=CC(=O)Nc1cc2c(Nc3cccc(Cl)c3F)ncnc2cc1C#C[C@]12C[C@H]1CN(C)C2 [Compound 49, N-(4-((3-chloro-2-fluorophenyl)amino)-7-(((1S,5R)-3-methyl-3-azabicyclo[3.1.0]hexan-1-yl)ethynyl)quinazolin-6-yl)acrylamide] | 0.05 to 0.1 | ≤ 0.05 | 0.1 to 0.5 | – | – | 0.05 to 0.1 |
| C=CC(=O)Nc1cc2c(Nc3cccc(Cl)c3F)ncnc2cc1C#C[C@]1(C)CCCN(C)C1 [Compound 53, (S)—N-(4-((3-chloro-2-fluorophenyl)amino)-7-((1,3-dimethylpiperidin-3-yl)ethynyl)quinazolin-6-yl)acrylamide] | 0.1 to 0.5 | 0.1 to 0.5 | > 0.5 | – | – | 0.1 to 0.5 |
| C=CC(=O)Nc1cc2c(Nc3ccc(OCc4cccc(F)c4)c(Cl)c3)ncnc2cc1C#C[C@@H]1[C@H]2CN(C)C[C@@H]12 [Compound 76, N-(4-((3-chloro-4-((3-fluorobenzyl)oxy)-phenyl)amino)-7-(((1R,5S,6s)-3-methyl-3-azabicyclo[3.1.0]hexan-6-yl)ethynyl)quinazolin-6-yl)acrylamide] | 0.05 to 0.1 | 0.1 to 0.5 | 0.1 to 0.5 | – | – | > 0.5 |
| C=CC(=O)Nc1cc2c(Nc3cccc(Cl)c3F)ncnc2cc1C#CC12CCN(CC1)CC2 [Compound 17, N-(4-((3-chloro-2-fluorophenyl)amino)-7-(quinuclidin-4-ylethynyl)-quinazolin-6-yl)acrylamide] | 0.1 to 0.5 | ≤ 0.05 | 0.1 to 0.5 | – | – | ≤ 0.05 |
| CC#CC(=O)Nc1cc2c(Nc3cccc(Cl)c3F)ncnc2cc1C#C[C@@H]1[C@H]2CN(C)C[C@@H]12 [Compound 74, N-(4-((3-chloro-2-fluorophenyl)amino)-7-(((1R,5S,6s)-3-methyl-3-azabicyclo[3.1.0]hexan-6-yl)ethynyl)quinazolin-6-yl)but-2-ynamide] | 0.05 to 0.1 | ≤ 0.05 | > 0.5 | – | – | 0.1 to 0.5 |
| C=CC(=O)Nc1cc2c(Nc3cccc(Cl)c3F)ncnc2cc1C#C[C@]1(C)CCN(C2COC2)C1 [Compound 58, (S)—N-(4-((3-chloro-2-fluorophenyl)amino)-7-((3-methyl-1-(oxetan-3-yl)pyrrolidin-3-yl)ethynyl)quinazolin-6-yl)acrylamide] | 0.05 to 0.1 | ≤ 0.05 | > 0.5 | – | – | 0.1 to 0.5 |
| C=CC(=O)Nc1cc2c(Nc3cccc(Cl)c3F)ncnc2cc1C#C[C@@]1(C)CCN(C2COC2)C1 [Compound 59, (R)—N-(4-((3-chloro-2-fluorophenyl)amino)-7-((3-methyl-1-(oxetan-3-yl)pyrrolidin-3-yl)ethynyl)quinazolin-6-yl)acrylamide] | 0.1 to 0.5 | ≤ 0.05 | > 0.5 | – | – | 0.1 to 0.5 |
| C=CC(=O)Nc1cc2c(Nc3cccc(Cl)c3F)ncnc2cc1C#CC1(C)CN(C)C2(COC2)C1 (centres unmarked) [Compound 47, N-(4-((3-chloro-2-fluorophenyl)amino)-7-((5,7-dimethyl-2-oxa-5-azaspiro[3.4]octan-7-yl)ethynyl)quinazolin-6-yl)acrylamide] | > 0.5 | 0.1 to 0.5 | > 0.5 | – | – | > 0.5 |
| C=CC(=O)Nc1cc2c(Nc3cccc(Cl)c3F)ncnc2cc1C#CC1(C)CN(C)C1 [Compound 11, N-(4-((3-chloro-2-fluorophenyl)amino)-7-((1,3-dimethylazetidin-3-yl)ethynyl)quinazolin-6-yl) acrylamide] | 0.1 to 0.5 | ≤ 0.05 | 0.1 to 0.5 | – | – | 0.1 to 0.5 |
| C=CC(=O)Nc1cc2c(Nc3cccc(Cl)c3F)ncnc2cc1C#CC1(C)CN(C)CC1(F)F (centres unmarked) [Compound 55, N-(4-((3-chloro-2-fluorophenyl)amino)-7-((4,4-difluoro-1,3-dimethylpyrrolidin-3-yl)ethynyl)quinazolin-6-yl)acrylamide] | 0.1 to 0.5 | 0.1 to 0.5 | > 0.5 | – | – | > 0.5 |
| C=C(F)C(=O)Nc1cc2c(Nc3cccc(Cl)c3F)ncnc2cc1C#CC1(C)CCN(C)C1 (centres unmarked) [Compound 5, N-(4-((3-chloro-2-fluorophenyl)amino)-7-((1,3-dimethylpyrrolidin-3-yl)ethynyl)quinazolin-6-yl)-2-fluoroacrylamide] | 0.1 to 0.5 | ≤ 0.05 | 0.1 to 0.5 | – | – | ≤ 0.05 |
